Where two headings read alike, the source gives them in different places.
How the values were obtained:
[1] = Evaluation for dissolvability of phytochemical (dissolution rate in water); details: for Dissolution rate: ultrapure water, shaken for 3 hours, centrifuged supernatant
From the text: In the present invention, the “dissolution rate” is an index indicating dissolvability of a compound into water, and is also represented by the value, in terms of the percentage (%), obtained by dividing a concentration (w/v) of the compound in a supernatant, which is obtained by shaking the compound in pure water to dissolve the compound therein and by centrifuging the solution, by a concentration (w/v) of the compound in pure water before being dissolved therein. The concentration may be measured by using a spectrophotometer. […] The temperature condition in the measurement of the “dissolution rate” is set to 21±2° C.
Furthermore, 10 mL of ultrapure water was added to the glucoside phytochemical such that the amount of aglycone (portion other than carbohydrate obtained by hydrolysis of glucoside) can be equal to 33.3 mg; namely, 67.3 mg of rutin (33.3 mg of quercetin); 89.6 mg of α-glucosyl rutin (33.3 mg of quercetin); 67.3 mg of hesperidin (33.3 mg of hesperetin); or 71.0 mg of naringin (33.3 mg of naringenin). As for the terpenoids, in accordance with the administering amount used in Experiments, 10 mL of ultrapure water was added to 3.3 mg of each of β-carotene and lycopene. The solutions thus prepared were shaken for 3 hours, and then, were centrifuged at 2000×g for 10 minutes. The centrifuged supernatants were filtrated by using a 0.45 μL filter. […] Each compound was dissolved in 80% methanol or methanol to obtain a calibration curve; and then, the concentration of the centrifuged supernatant was obtained. A series of the operations above were carried out under the temperature condition of 21±2° C. The dissolution rate was calculated in accordance with the following formula. Dissolution rate (%)=[(concentration of the centrifuged supernatant after dissolution by shaking (w/v))+(concentration of the solution before dissolution by shaking (w/v)]×100

[2] = Experiment 1: promoting absorption of β-carotene, yogurts of OLL1251 and other strains; type: in vivo; details: male, SD, oral; rat serum, 5 mg/kg-body weight β-carotene, 11.3 g/kg-body weight yogurt, up to 480 minutes; read-out: Area Under the blood concentration-time Curve (AUC) of β-carotene (converted)
Method: (§1) Column temperature was set at 40° C.
The yogurts thus obtained contained 136 μg/g, 88 μg/g, and 68 μg/g of the polysaccharide, respectively.

[3] = Experiment 3: promoting absorption of β-carotene, yogurts of strain combinations; type: in vivo; details: male, SD, oral; rat serum, 5 mg/kg-body weight β-carotene, 11.3 g/kg-body weight yogurt, up to 480 minutes; read-out: Area Under the blood concentration-time Curve (AUC) of β-carotene (converted)
Method: as §1
The yogurts thus obtained contained 15 μg/g, 54 μg/g, and 67 μg/g of the polysaccharide, respectively.

[4] = Experiment 5: promoting absorption of β-carotene, comparison with other absorption promotors; type: in vivo; details: male, SD, oral; rat serum, 5 mg/kg-body weight β-carotene, 70 mg/kg-body weight polysaccharide, up to 480 minutes; read-out: Area Under the blood concentration-time Curve (AUC) of β-carotene (converted)
Method: A part of the yogurt of Experiment 4 (Lactobacillus bulgaricus OLL1251 and Streptococcus thermophilus OLS3290) was taken; and then, to the supernatant thereof was added ethanol the amount of which was three times as much as the supernatant. The resulting mixture was kept in a frozen state, and thereafter, the supernatant of the mixture was centrifuged to obtain a precipitate. This precipitate was freeze-dried to obtain a polysaccharide concentrate. In 11.3 g of the yogurt, 70 mg of the polysaccharide concentrate was included. Hereinafter, the polysaccharide concentrate obtained is called “lactic acid bacterium-originated polysaccharide concentrate”.

in vivo = details: male, SD, rat, 5 mg/kg
[5] = concentration of the centrifuged supernatant after shaking in ultrapure water, 21±2° C., glucosides in terms of the aglycone

Row | Saturated solubility [1] | Dissolution rate ([1]; 21±2° C.) | Molecule | further results
1 | 1.1 mg/100 g | 0.3% | O=C1C[C@@H](c2ccc(O)cc2)Oc2cc(O)cc(O)c21 [Naringenin] | 
2 | 0.1 mg/100 g | 0.1% or less | O=c1c(O)c(-c2ccc(O)c(O)c2)oc2cc(O)cc(O)c12 [Quercetin] | 
3 |  | 0.2% | O=c1c(-c2ccc(O)cc2)coc2cc(O)cc(O)c12 [Genistein] | Saturated solubility [1, 5]: 0.6 mg/100 g
4 | 0.1 or less mg/100 g | 0.1% or less | CC1=C(/C=C/C(C)=C/C=C/C(C)=C/C=C/C=C(C)/C=C/C=C(C)/C=C/C2=C(C)CCCC2(C)C)C(C)(C)CCC1 [β-Carotene] | AUC [2]: 75 ng·h/mL; AUC [3]: 88.8 ng·h/mL; AUC [4]: 131 ng·h/mL; AUC (in vivo): 110 ng·h/mL
5 | 0.1 or less mg/100 g | 0.1% or less | CC1=C(/C=C/C(C)=C/C=C/C(C)=C/C=C/C=C(C)/C=C/C=C(C)/C=C/C(=O)[C@]2(C)C[C@@H](O)CC2(C)C)C(C)(C)C[C@H](O)C1 [Capsanthin] | 
6 | 0.1 or less mg/100 g | 0.1% or less | O=c1cc(-c2ccc(O)c(O)c2)oc2cc(O)cc(O)c12 [Luteolin] | 
7 | 0.1 mg/100 g | 0.1% or less | O=c1c(O)c(-c2ccc(O)cc2)oc2cc(O)cc(O)c12 [Kaempferol] | 
8 | 0.1 or less mg/100 g | 0.1% or less | CC(C)=CCC/C(C)=C/C=C/C(C)=C/C=C/C(C)=C/C=C/C=C(C)/C=C/C=C(C)/C=C/C=C(\C)CCC=C(C)C [Lycopene] | 
9 | 295 mg/100 g | 89% | α-Glucosyl rutin | 
10 | 0.1 or less mg/100 g | 0.1% or less | CC1=C[C@H](O)CC(C)(C)[C@H]1/C=C/C(C)=C/C=C/C(C)=C/C=C/C=C(C)/C=C/C=C(C)/C=C/C1=C(C)C[C@@H](O)CC1(C)C [Lutein] | 
11 | 55 mg/100 g | 17% | C[C@@H]1O[C@@H](O[C@H]2[C@H](Oc3cc(O)c4c(c3)O[C@H](c3ccc(O)cc3)CC4=O)O[C@H](CO)[C@@H](O)[C@@H]2O)[C@H](O)[C@H](O)[C@H]1O [Naringin] | 
12 | 0.1 or less mg/100 g | 0.1% or less | CC1=CCCC(C)(C)C1/C=C/C(C)=C/C=C/C(C)=C/C=C/C=C(C)/C=C/C=C(C)/C=C/C1=C(C)CCCC1(C)C (stereo not drawn) [α-Carotene] | 
13 | 287 mg/100 g |  | Oc1cc(O)c2c(c1)O[C@H](c1ccc(O)c(O)c1)[C@H](O)C2 [Epicatechin] | 

Row | Molecule | Saturated solubility [1] | Dissolution rate ([1]; 21±2° C.) | further results
14 | CC1=C(/C=C/C(C)=C/C=C/C(C)=C/C=C/C=C(C)/C=C/C=C(C)/C=C/C2=C(C)C[C@@H](O)CC2(C)C)C(C)(C)CCC1 [β-Cryptoxanthin] | 0.1 or less mg/100 g | 0.1% or less | 
15 | COc1ccc([C@@H]2CC(=O)c3c(O)cc(O[C@@H]4O[C@H](CO[C@@H]5O[C@@H](C)[C@H](O)[C@@H](O)[C@H]5O)[C@@H](O)[C@H](O)[C@H]4O)cc3O2)cc1O [Hesperidin] |  | 0.2% | Saturated solubility [1, 5]: 0.5 mg/100 g
16 | C[C@@H]1O[C@@H](OC[C@H]2O[C@@H](Oc3c(-c4ccc(O)c(O)c4)oc4cc(O)cc(O)c4c3=O)[C@H](O)[C@@H](O)[C@@H]2O)[C@H](O)[C@H](O)[C@H]1O [Rutin] | 1.0 mg/100 g |  | 
